The subject of data set [1] is α2-adrenergic receptor. The experiment in a line: general side-effect profile panel (receptors, transporters, ion channels, enzymes). The format is binding. How it is done:
(§1) In a general side-effect profile panel using a wide range of receptors, transporters, ion channels, enzymes and other biological targets that could directly or indirectly influence dopaminergic or noradrenergic neurotransmission in the brain, initial results indicated some 1-homoarginine-d-amphetamine dihydrochloride activity at the α2-adrenergic receptor. However, after completion of a confirmatory half maximal inhibitory concentration (IC50) assay, it was determined that it is unlikely that 1-homoarginine-d-amphetamine dihydrochloride would cause any side-effects related to any of the common enzymes/receptors.

Data set [2] deals with human recombinant dopamine transporter (Homo sapiens, UniProt Q01959). The experiment in a line: in vitro radioligand binding study, dopamine transporter. The note with it: intact prodrug, up to 10 μM. An excerpt: (§2) Therefore, there is no direct interaction by 1-homoarginine-d-amphetamine dihydrochloride with primary targets critical for the pharmacological effects of d-amphetamine.
Sequence of human recombinant dopamine transporter (Q01959 whole entry): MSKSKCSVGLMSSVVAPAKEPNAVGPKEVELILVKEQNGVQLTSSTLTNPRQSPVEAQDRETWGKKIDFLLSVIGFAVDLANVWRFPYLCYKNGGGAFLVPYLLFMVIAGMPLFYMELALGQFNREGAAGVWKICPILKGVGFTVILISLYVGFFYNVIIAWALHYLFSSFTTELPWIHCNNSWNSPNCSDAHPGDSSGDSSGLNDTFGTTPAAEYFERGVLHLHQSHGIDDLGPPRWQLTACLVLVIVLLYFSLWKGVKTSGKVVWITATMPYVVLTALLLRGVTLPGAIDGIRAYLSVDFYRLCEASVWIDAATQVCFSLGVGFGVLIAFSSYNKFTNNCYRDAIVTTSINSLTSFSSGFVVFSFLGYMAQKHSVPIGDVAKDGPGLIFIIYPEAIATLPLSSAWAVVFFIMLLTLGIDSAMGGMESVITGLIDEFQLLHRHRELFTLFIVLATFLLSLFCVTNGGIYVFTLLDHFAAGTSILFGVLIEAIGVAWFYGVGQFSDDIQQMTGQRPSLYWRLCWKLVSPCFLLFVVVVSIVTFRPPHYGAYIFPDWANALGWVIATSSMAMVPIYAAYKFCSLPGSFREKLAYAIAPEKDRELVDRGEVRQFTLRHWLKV

Another data set relates to rats. The experiment in a line: motor activity in rats after PO, IV or IN administration. The format is in vivo. The conditions noted are these: rat; for increase in activity: IV; for activity levels compared to controls: single IN dose. How it is done: The pharmacodynamic properties of 1-homoarginine-d-amphetamine dihydrochloride in rats were evaluated and compared to lisdexamfetamine dimesylate and vehicle control after oral (PO), intravenous (IV) and intranasal (IN) administration.
The activity levels of rats after a single IN dose of 1-homoarginine-d-amphetamine dihydrochloride (5.25 mg/kg) was not increased when compared to controls.

Data set [3] addresses human recombinant norepinephrine transporter (Homo sapiens, UniProt P23975). The experiment in a line: in vitro radioligand binding study, norepinephrine transporter. The conditions noted are these: intact prodrug, up to 10 μM.
Source text: as §2

The subject of data set [4] is α2-adrenergic receptor. The experiment in a line: confirmatory half maximal inhibitory concentration (IC50) assay. The format is binding. The note with it: after completion of confirmatory IC50 assay. How it is done:
as §1

From patent US20200155687A1, “METHODS OF TREATMENT USING AN A[…]” (Shire Pharmaceuticals Inc., priority 2017, published 2020) come the findings set out here.

Sequence of human recombinant norepinephrine transporter (P23975 whole entry): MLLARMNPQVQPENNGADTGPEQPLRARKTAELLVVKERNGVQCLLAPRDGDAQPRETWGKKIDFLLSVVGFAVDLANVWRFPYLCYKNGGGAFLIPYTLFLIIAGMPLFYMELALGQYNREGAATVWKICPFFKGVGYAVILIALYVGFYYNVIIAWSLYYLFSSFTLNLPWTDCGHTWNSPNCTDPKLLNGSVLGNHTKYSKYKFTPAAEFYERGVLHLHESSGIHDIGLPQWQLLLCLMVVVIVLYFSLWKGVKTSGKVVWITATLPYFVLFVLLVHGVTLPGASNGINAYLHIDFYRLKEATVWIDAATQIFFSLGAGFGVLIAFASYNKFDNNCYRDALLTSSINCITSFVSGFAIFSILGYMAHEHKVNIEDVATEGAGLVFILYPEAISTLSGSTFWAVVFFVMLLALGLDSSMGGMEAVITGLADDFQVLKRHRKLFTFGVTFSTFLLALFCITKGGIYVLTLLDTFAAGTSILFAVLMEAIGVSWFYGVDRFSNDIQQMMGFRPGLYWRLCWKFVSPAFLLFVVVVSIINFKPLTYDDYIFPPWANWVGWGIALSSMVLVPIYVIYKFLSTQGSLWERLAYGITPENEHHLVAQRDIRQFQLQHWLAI

Regarding `C[C@@H](Cc1ccccc1)NC(=O)[C@@H](N)CCCCNC(=N)N.Cl` [1-homoarginine-d-amphetamine dihydrochloride], in the data set with α2-adrenergic receptor [1], the “activity at the α2-adrenergic receptor (initial results)” value is listed as “some”. Moreover, the “activity at the dopamine transporter site” value in data set [2] is reported as “no significant activity”. In the data set with rats (5.25 mg/kg), the increase in activity result was “approximately 15%” and the “activity levels compared to controls” value was “not increased”. In the data set on rats (PO, 4.37 mg/kg), the “motor activity compared to the vehicle control group” value is “induced an increase in motor activity”. For the same compound, in the data set with rats (PO, 4.37 mg/kg, initial three hours of the study), the “activity levels versus lisdexamfetamine (4.21 mg/kg) comparator group” value was “in general lower”. Besides, the “activity at the norepinephrine transporter site” value in data set [3] is listed as “no significant activity”. For the same compound, the “likelihood of side-effects related to any of the common enzymes/receptors” value in the data set with α2-adrenergic receptor [4] was “unlikely”.
Regarding “lisdexamfetamine dimesylate [reference compound]”, in the data set with rats (5.05 mg/kg), the increase in activity was found to be 60% and the “activity levels compared to controls” value is recorded as “A similar result”.
